Experimental data published in article PMC5024137 (Scientific Reports, 2016).

T1: hOATP2B1 (Homo sapiens, UniProt O94956)
T1 sequence (O94956 1-709): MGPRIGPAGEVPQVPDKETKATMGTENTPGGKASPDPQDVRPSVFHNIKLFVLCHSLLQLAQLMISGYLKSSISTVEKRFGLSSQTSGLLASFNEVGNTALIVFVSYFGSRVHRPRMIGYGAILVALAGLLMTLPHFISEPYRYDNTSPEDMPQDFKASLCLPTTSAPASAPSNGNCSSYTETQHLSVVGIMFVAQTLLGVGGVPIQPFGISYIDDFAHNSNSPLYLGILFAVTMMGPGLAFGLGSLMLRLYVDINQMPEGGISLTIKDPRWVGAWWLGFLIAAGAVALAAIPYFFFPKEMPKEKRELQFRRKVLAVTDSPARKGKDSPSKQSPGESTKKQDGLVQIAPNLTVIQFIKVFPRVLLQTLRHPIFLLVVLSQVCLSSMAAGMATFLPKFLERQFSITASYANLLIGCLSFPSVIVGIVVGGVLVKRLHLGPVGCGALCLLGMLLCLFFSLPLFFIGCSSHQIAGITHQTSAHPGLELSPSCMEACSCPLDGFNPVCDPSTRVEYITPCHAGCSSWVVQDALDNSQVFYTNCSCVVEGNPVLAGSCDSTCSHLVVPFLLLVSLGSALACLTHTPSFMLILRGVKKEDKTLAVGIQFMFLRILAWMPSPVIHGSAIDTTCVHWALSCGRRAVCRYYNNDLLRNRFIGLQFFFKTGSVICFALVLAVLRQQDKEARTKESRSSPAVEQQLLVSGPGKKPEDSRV

B1: hOATP2B1 (Homo sapiens) (protein)
chain: T1 sequence (O94956 1-709)

Assays:
hOATP2B1 [1] = molecular target: T1, hOATP2B1; test: Cellular uptake assay: intracellular accumulation in HEK293-hOATP2B1 vs HEK293-MOCK cells (HPLC-MS/MS); settings: 0.25 μM, HBSS pH7.4, 37 °C, 20 min
hOATP2B1 [2] = molecular target: T1, hOATP2B1; test: pH dependent uptake of morphine and M6G in HEK293-hOATP2B1 cells; settings: 0.25 μM, HBSS, 37 °C, 20 min
[3] = substrate: CN1CC[C@]23c4c5ccc(O)c4O[C@H]2[C@@H](O[C@@H]2O[C@H](C(=O)O)[C@@H](O)[C@H](O)[C@H]2O)C=C[C@H]3[C@H]1C5; test: cells, lysate or membranes named; settings: other: HEK293-hOATP2B1 cells, 0.25 to 100 μM, pH7.4, 37 °C, 20 min, pH 7.4
Text: V is the initial uptake rate of the substrate (pmol/min/mg protein), S is the substrate concentration in the medium (μM) and Pdif is the uptake clearance corresponding to the passive diffusion and nonspecific binding to the cell surface. Unpaired two-side Student’s t-test was applied for comparisons of two groups’ data. A P value < 0.05 was considered statistically significant.

Molecule	increase of intracellular accumulation in HEK293-hOATP2B1 compared to HEK293-MOCK (hOATP2B1 [1])	further results
CC(C)n1c(/C=C/C(O)CC(O)CC(=O)O)c(-c2ccc(F)cc2)c2ccccc21 (centres unmarked) [fluvastatin]	2 to 3 fold	–
C[C@]12CC[C@@H]3c4ccc(OS(=O)(=O)[O-])cc4CC[C@H]3[C@@H]1CCC2=O.[Na+] [E-3-S, estrone-3-sulfate sodium salt]	2 to 3 fold	–
CN1CC[C@]23c4c5ccc(O)c4O[C@H]2[C@@H](O[C@@H]2O[C@H](C(=O)O)[C@@H](O)[C@H](O)[C@H]2O)C=C[C@H]3[C@H]1C5 [M6G, morphine-6-glucuronide]	more than 2 fold	intracellular accumulation (hOATP2B1 [1]; HEK293-MOCK cells): 0.26 nM; intracellular accumulation (hOATP2B1 [1]; HEK293-hOATP2B1 cells): 0.71 nM; concentration in HEK293-hOATP2B1 cells at pH6.0 relative to pH7.4 (hOATP2B1 [2]): 2.05 fold
CN1CC[C@]23c4c5ccc(O[C@@H]6O[C@H](C(=O)O)[C@@H](O)[C@H](O)[C@H]6O)c4O[C@H]2[C@@H](O)C=C[C@H]3[C@H]1C5 [M3G, morphine-3-glucuronide]	didn’t show any differences	–
B1	–	Km [3]: 80.31 ± 21.75 µM
